Activity calls are given as the source filed them. The calls are words filed in the database; no cut-off is given here.
Legend:
Nucleic Acid [1] = test: Binding affinity to topoisomerase 2-alpha promoter AAGCTA DNA by thermal denaturation assay; type: nucleic-acid assay
[2] = Binding affinity to biotinylated AAGCTT DNA
[3] = Binding affinity to biotinylated AAATTT DNA
[4] = Binding affinity to biotinylated ACGCGT DNA
[5] = Inhibition of NF-Y binding to 5'-[32P]ICB2-containing DNA fragment at 50 uM after 2 hrs by electrophoretic mobility shift assay
Nucleic Acid [6] = test: Binding affinity to topoisomerase 2alpha promoter ATGCAT DNA by thermal denaturation assay; type: nucleic-acid assay
Nucleic Acid [7] = test: Binding affinity to topoisomerase 2alpha promoter AAATTT 11 bp DNA by thermal denaturation assay; type: nucleic-acid assay
Nucleic Acid [8] = test: Binding affinity to topoisomerase 2alpha promoter AAATTT 10 bp DNA by thermal denaturation assay; type: nucleic-acid assay
Nucleic Acid [9] = test: Binding affinity to topoisomerase 2-alpha promoter AAATTT 12 bp DNA by thermal denaturation assay; type: nucleic-acid assay
NIH3T3 = test: Induction of topoisomerase 2-alpha expression in mouse NIH3T3 cells at 10 uM after 24 hrs by Western blotting assay; type: functional, cell-based

Row | Compound | ΔTm (Nucleic Acid [1]) | K [2] | K [3] | K [4] | Activity [5] | ΔTm (Nucleic Acid [6]) | ΔTm (Nucleic Acid [7]) | ΔTm (Nucleic Acid [8]) | ΔTm (Nucleic Acid [9]) | Activity (NIH3T3)
1 | CN(C)CCCNC(=O)c1cc(NC(=O)c2cc(NC(=O)c3nc(NC=O)cn3C)cn2C)cn1C | 5.1 °C | 5.5 10^6/M | 4.7 10^5/M | 9.5 10^4/M | inactive | 11 °C | 3.5 °C | – | – | –
2 | CN(CCCN)CCCNC(=O)c1cc(NC(=O)c2cc(NC(=O)c3nc(NC=O)cn3C)cn2C)cn1C | > 22 °C | – | – | – | – | – | – | 10 °C | – | –
3 | CN(CCCNC(=O)CCCCCCCN1C(=O)c2cccc3cccc(c23)C1=O)CCCNC(=O)c1cc(NC(=O)c2cc(NC(=O)c3nc(NC=O)cn3C)cn2C)cn1C | 8.4 °C | 5.6 10^6/M | 1.5 10^5/M | 2.8 10^5/M | Active | – | – | – | 3.8 °C | Active

Reference: ChEMBL document CHEMBL1143203, “Targeting the inverted CCAAT Box-2 of the topoisomerase IIalpha gene: DNA sequence selective recognition by a polyamide-intercalator as a staggered dimer” (Bioorg Med Chem, 2008)
